Tests used:
Type in all cases: cell-based
[1] = target: T1, αvβ1 (Homo sapiens, UniProt P05556+P06756); experiment: Cell Adhesion Assay αvβ1; details: A549-αvβ1 cells, ligand LAP-b1, 2 mM MgCl2; read-out: mean affinity (pIC50) αvβ1 (converted)
T1 construct: host or cells: A549-αvβ1
Method: (§1) The following cell lines are used, with ligands in brackets: K562-αvβ3 (LAP-b1), K562-αvβ5 (Vitronectin), K562-αvβ6 (LAP-b1), K562-αvβ8 (LAP-b1), A549-αvβ1 (LAP-b1). The divalent cation used to facilitate adhesion is 2 mM MgCl2. Adhesion is quantified by cell labelling with the fluorescent dye BCECF-AM (Life Technologies), where cell suspensions at 3×10^6cells/nnL are incubated with 0.33 uL/mL of 30 mM BCECF-AM at 37° C. for 10 minutes, then 50 μL/well are dispensed into the 96-well assay plate. At the assay conclusion cells that adhered are lysed using 50 μL/well of 0.5% Triton X-100 in H2O to release fluorescence. Fluorescence intensity is detected using an Envision® plate reader (Perkin Elmer). For active antagonists in the assay, data is fitted to a 4 parameter logistic equation for IC50 determinations.
(§2) Those of skill in the art will recognise that in vitro binding assays and cell-based assays for functional activity are subject to experimental variability.

[2] = target: T2, αvβ3 (Homo sapiens, UniProt P05106+P06756); experiment: Cell Adhesion Assay αvβ3; details: K562-αvβ3 cells, ligand LAP-b1, 2 mM MgCl2; read-out: mean affinity (pIC50) αvβ3 (converted)
T2 construct: expressed in transfected cells; host or cells: K562-αvβ3
Method: as §1, §2

[3] = target: T3, αvβ5 (Homo sapiens, UniProt P06756+P18084); experiment: Cell Adhesion Assay αvβ5; details: K562-αvβ5 cells, ligand Vitronectin, 2 mM MgCl2; read-out: mean affinity (pIC50) αvβ5 (converted)
T3 construct: expressed in transfected cells; host or cells: K562-αvβ5
Method: as §1, §2

[4] = target: T4, αvβ8 (Homo sapiens, UniProt P06756+P26012); experiment: Cell Adhesion Assay αvβ8; details: K562-αvβ8 cells, ligand LAP-b1, 2 mM MgCl2; read-out: mean affinity (pIC50) αvβ8 (converted)
T4 construct: expressed in transfected cells; host or cells: K562-αvβ8
Method: as §1, §2

[5] = target: T5, αvβ6 (Homo sapiens, UniProt P06756+P18564); experiment: Cell Adhesion Assay αvβ6; details: K562-αvβ6 cells, ligand LAP-b1, 2 mM MgCl2; read-out: mean affinity (pIC50) αvβ6 (converted)
T5 construct: expressed in transfected cells; host or cells: K562-αvβ6
Method: as §1, §2

T1 sequence (P06756 31-889 limits assumed): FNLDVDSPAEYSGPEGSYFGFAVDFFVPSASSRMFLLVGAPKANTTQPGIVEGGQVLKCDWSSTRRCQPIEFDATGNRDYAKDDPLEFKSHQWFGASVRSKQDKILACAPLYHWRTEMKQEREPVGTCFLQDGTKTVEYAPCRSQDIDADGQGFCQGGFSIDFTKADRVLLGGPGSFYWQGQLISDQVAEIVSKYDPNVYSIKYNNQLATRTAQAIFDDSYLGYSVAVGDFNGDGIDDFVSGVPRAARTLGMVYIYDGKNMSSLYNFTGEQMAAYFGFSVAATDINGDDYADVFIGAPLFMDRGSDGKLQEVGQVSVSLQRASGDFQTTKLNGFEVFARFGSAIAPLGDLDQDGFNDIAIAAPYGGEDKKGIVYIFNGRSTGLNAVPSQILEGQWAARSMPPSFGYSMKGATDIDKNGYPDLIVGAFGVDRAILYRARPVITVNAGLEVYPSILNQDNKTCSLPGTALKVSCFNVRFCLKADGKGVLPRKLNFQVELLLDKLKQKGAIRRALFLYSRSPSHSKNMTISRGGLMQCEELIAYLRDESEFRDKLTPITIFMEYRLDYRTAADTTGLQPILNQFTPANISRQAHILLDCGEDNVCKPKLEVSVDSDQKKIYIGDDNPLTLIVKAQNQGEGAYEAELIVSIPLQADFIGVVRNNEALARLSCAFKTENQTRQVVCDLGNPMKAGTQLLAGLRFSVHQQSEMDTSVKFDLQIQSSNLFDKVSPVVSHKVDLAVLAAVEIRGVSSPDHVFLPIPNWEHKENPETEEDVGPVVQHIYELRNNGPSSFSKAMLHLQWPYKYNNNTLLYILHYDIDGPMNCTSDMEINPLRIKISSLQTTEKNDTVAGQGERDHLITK
T1 sequence (P06756 891-1048 partner limits assumed): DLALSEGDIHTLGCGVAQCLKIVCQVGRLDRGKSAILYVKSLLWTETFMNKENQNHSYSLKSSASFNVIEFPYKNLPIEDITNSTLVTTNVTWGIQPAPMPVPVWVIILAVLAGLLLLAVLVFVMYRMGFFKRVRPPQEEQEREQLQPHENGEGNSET
T1 sequence (P05556 21-798): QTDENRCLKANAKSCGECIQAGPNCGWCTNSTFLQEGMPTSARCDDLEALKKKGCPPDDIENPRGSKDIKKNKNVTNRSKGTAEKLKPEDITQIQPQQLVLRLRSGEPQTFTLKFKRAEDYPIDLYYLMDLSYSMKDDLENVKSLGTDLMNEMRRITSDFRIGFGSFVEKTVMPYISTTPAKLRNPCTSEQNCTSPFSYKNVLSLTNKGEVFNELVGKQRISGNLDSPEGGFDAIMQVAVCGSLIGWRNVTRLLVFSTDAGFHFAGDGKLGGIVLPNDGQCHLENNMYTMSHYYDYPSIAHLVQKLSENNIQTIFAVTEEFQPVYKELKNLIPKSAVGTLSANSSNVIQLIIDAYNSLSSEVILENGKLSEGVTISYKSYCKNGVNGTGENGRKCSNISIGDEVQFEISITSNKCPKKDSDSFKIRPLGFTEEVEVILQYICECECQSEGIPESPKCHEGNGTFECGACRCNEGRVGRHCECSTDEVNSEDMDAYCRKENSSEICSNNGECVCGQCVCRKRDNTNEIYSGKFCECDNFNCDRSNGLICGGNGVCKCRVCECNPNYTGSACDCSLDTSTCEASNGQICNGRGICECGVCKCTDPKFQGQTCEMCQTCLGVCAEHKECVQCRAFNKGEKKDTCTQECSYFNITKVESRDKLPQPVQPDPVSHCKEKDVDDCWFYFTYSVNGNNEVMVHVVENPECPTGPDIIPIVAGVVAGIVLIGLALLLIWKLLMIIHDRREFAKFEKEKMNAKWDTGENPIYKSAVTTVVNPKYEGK
T5 sequence (P06756 31-889 limits assumed): as the sequence (P06756 31-889 limits assumed) above
T5 sequence (P06756 891-1048 partner limits assumed): as the sequence (P06756 891-1048 partner limits assumed) above
T5 sequence (P18564 22-788): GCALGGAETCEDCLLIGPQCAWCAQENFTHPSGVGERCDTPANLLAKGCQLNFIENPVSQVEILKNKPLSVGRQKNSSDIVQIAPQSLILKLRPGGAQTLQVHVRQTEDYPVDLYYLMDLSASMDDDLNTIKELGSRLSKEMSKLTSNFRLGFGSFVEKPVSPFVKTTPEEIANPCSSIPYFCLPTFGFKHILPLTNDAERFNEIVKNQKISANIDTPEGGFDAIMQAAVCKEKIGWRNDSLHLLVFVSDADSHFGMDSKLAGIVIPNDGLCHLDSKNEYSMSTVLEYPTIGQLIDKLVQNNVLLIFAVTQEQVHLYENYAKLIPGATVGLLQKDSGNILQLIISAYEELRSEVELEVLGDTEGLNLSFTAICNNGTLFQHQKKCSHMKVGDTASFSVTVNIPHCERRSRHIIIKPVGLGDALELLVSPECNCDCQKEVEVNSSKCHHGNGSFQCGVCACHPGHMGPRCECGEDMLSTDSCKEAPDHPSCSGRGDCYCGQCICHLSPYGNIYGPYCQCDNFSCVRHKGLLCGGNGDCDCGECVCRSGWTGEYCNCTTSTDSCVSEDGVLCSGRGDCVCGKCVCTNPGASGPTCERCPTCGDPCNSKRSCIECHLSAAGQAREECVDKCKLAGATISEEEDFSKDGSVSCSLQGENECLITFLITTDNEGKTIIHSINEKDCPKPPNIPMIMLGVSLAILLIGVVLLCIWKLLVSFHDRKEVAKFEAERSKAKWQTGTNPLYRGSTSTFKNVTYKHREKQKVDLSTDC
T3 sequence (P06756 31-889 limits assumed): as the sequence (P06756 31-889 limits assumed) above
T3 sequence (P06756 891-1048 partner limits assumed): as the sequence (P06756 891-1048 partner limits assumed) above
T3 sequence (P18084 24-799): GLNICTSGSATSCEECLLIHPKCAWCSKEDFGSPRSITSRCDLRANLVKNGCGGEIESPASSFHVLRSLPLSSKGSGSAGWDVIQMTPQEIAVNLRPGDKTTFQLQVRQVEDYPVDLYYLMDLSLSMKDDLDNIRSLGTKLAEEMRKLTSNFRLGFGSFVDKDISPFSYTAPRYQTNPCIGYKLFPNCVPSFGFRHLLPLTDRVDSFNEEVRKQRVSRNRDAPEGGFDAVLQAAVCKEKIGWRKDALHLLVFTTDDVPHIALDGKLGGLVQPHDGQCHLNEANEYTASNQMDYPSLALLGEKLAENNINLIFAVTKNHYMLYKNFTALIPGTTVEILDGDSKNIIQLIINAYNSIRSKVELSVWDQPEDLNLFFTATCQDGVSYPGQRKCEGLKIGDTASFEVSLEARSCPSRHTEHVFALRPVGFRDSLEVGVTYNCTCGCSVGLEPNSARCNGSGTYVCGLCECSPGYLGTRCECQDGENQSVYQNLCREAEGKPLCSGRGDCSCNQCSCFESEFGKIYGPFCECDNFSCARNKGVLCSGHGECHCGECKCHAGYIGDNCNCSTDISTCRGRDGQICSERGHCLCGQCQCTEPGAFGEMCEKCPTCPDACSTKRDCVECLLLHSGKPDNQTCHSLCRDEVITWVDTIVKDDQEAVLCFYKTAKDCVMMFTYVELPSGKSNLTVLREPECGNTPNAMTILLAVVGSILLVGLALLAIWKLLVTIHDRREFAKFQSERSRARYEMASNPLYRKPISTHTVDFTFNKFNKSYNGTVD
T4 sequence (P06756 31-889 limits assumed): as the sequence (P06756 31-889 limits assumed) above
T4 sequence (P06756 891-1048 partner limits assumed): as the sequence (P06756 891-1048 partner limits assumed) above
T4 sequence (P26012 43-769): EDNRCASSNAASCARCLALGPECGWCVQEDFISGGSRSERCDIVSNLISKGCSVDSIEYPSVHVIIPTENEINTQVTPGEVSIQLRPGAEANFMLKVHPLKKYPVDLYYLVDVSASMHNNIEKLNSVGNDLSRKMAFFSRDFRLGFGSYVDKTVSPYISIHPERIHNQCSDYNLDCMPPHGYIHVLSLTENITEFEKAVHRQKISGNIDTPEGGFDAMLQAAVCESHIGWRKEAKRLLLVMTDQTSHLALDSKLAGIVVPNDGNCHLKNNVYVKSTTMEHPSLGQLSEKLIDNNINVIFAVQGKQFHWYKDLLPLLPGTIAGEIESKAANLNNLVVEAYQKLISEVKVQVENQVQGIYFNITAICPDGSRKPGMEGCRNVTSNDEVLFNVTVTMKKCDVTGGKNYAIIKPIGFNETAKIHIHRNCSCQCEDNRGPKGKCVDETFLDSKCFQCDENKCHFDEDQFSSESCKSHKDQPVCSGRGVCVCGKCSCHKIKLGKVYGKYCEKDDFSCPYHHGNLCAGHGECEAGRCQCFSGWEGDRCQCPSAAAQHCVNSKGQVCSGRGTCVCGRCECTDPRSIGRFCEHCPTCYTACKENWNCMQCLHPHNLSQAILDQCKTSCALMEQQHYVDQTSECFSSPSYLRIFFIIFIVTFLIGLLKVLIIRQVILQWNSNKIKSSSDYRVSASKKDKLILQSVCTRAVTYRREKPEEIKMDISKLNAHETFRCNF

| Structure (SMILES) | IC50 [1] [nM] | IC50 [2] [nM] | IC50 [3] [nM] | IC50 [4] [nM] | IC50 [5] [nM] |
| --- | --- | --- | --- | --- | --- |
| CC(C)OCCOc1cccc([C@H](CC(=O)O)CN2CC[C@@H](CCc3ccc4c(n3)NCCC4)C2)c1 [Example 13, (S)-3-(3-(2-Isopropoxyethoxy)phenyl)-4-((R)-3-(2-(5,6,7,8-tetrahydro-1,8-naphthyridin-2-yl)ethyl)pyrrolidin-1-yl)butanoic acid] |  | 100 | 31.6 | 20 | 10 |
| COCC(COC)Oc1cccc(C(CC(=O)O)CN2CC[C@@H](CCc3ccc4c(n3)NCCC4)C2)c1 (stereo partly drawn) [Example 17, 3-(3-((1,3-Dimethoxypropan-2-yl)oxy)phenyl)-4-((R)-3-(2-(5,6,7,8-tetrahydro-1,8-naphthyridin-2-yl)ethyl)pyrrolidin-1-yl)butanoic acid] |  | 398 |  | 20 | 12.6 |
| COC[C@H](C)Oc1cccc(C(CC(=O)O)CN2CC[C@@H](CCc3ccc4c(n3)NCCC4)C2)c1 (single isomer, unassigned) [Example 5] | 251 | 3160 |  |  |  |
| COCCOc1cc(OCCF)cc(C(CC(=O)O)CN2CC[C@@H](CCc3ccc4c(n3)NCCC4)C2)c1 (stereo partly drawn) [Example 18, 3-(3-(2-Fluoroethoxy)-5-(2-methoxyethoxy)phenyl)-4-((R)-3-(2-(5,6,7,8-tetrahydro-1,8-naphthyridin-2-yl)ethyl)pyrrolidin-1-yl)butanoic acid] | 200 | 398 |  | 25.1 | 5.01 |
| CO[C@H](C)COc1cccc([C@H](CC(=O)O)CN2CC[C@@H](CCc3ccc4c(n3)NCCC4)C2)c1 [Example 2, (S)-3-(3-((R)-2-methoxypropoxy)phenyl)-4-((R)-3-(2-(5,6,7,8-tetrahydro-1,8-naphthyridin-2-yl)ethyl)pyrrolidin-1-yl)butanoic acid] | 100 | 63.1 | 15.8 |  | 2.51 |
| CO[C@@H](C)COc1cccc([C@H](CC(=O)O)CN2CC[C@@H](CCc3ccc4c(n3)NCCC4)C2)c1 [Example 3, (S)-3-(3-((S)-2-methoxypropoxy)phenyl)-4-((R)-3-(2-(5,6,7,8-tetrahydro-1,8-naphthyridin-2-yl)ethyl)pyrrolidin-1-yl)butanoic acid] | 126 |  | 15.8 | 15.8 | 2.51 |
| COCCOc1cc(OCCOC)cc([C@H](CC(=O)O)CN2CC[C@@H](CCc3ccc4c(n3)NCCC4)C2)c1 [Example 8, (S)-3-(3,5-Bis(2-methoxyethoxy)phenyl)-4-((R)-3-(2-(5,6,7,8-tetrahydro-1,8-naphthyridin-2-yl)ethyl)pyrrolidin-1-yl)butanoic acid] | 200 | 126 | 31.6 | 20 | 3.16 |
| COCCCOc1cccc(C(CC(=O)O)CN2CC[C@@H](CCc3ccc4c(n3)NCCC4)C2)c1 (stereo partly drawn) [Example 19, 3-(3-(3-Methoxypropoxy)phenyl)-4-((R)-3-(2-(5,6,7,8-tetrahydro-1,8-naphthyridin-2-yl)ethyl)pyrrolidin-1-yl)butanoic acid] |  | 158 | 63.1 | 12.6 | 10 |

Results, then the molecule that gave them:

| IC50 [1] [nM] | IC50 [2] [nM] | IC50 [3] [nM] | IC50 [4] [nM] | IC50 [5] [nM] | Structure (SMILES) |
| --- | --- | --- | --- | --- | --- |
| 50.1 | 316 | 63.1 | 15.8 |  | COCC(C)(C)Oc1cccc([C@H](CC(=O)O)CN2CC[C@@H](CCc3ccc4c(n3)NCCC4)C2)c1 [Example 11] |
|  | 398 |  | 20 | 7.94 | O=C(O)CC(CN1CC[C@@H](CCc2ccc3c(n2)NCCC3)C1)c1cccc(OCC2COC2)c1 (stereo partly drawn) [Example 20, 3-(3-(Oxetan-3-ylmethoxy)phenyl)-4-((R)-3-(2-(5,6,7,8-tetrahydro-1,8-naphthyridin-2-yl)ethyl)pyrrolidin-1-yl)butanoic acid] |
| 398 | 79.4 | 39.8 | 20 | 5.01 | O=C(O)C[C@H](CN1CC[C@@H](CCc2ccc3c(n2)NCCC3)C1)c1cccc(OC[C@H]2CCCO2)c1 [Example 14, (S)-4-((R)-3-(2-(5,6,7,8-Tetrahydro-1,8-naphthyridin-2-yl)ethyl)pyrrolidin-1-yl)-3-(3-(((R)-tetrahydrofuran-2-yl)methoxy)phenyl)butanoic acid] |
| 158 |  | 10 |  | 3.16 | COCCOc1cccc([C@H](CC(=O)O)CN2CC[C@@H](CCc3ccc4c(n3)NCCC4)C2)c1 [Example 1, (S)-3-(3-(2-methoxyethoxy)phenyl)-4-((R)-3-(2-(5,6,7,8-tetrahydro-1,8-naphthyridin-2-yl)ethyl)pyrrolidin-1-yl)butanoic acid] |
|  | 251 | 63.1 |  |  | COC[C@@H](C)Oc1cccc([C@H](CC(=O)O)CN2CC[C@@H](CCc3ccc4c(n3)NCCC4)C2)c1 [Example 12, (S)-3-(3-(((R)-1-methoxypropan-2-yl)oxy)phenyl)-4-((R)-3-(2-(5,6,7,8-tetrahydro-1,8-naphthyridin-2-yl)ethyl)pyrrolidin-1-yl)butanoic acid] |
| 501 | 100 | 39.8 | 39.8 | 5.01 | O=C(O)C[C@H](CN1CC[C@@H](CCc2ccc3c(n2)NCCC3)C1)c1cccc(OC[C@@H]2CCCO2)c1 [Example 15, (S)-4-((R)-3-(2-(5,6,7,8-tetrahydro-1,8-naphthyridin-2-yl)ethyl)pyrrolidin-1-yl)-3-(3-(((S)-tetra hydrofuran-2-yl)methoxy)phenyl)butanoic acid] |
| 158 | 200 |  | 15.8 |  | COC(C)(C)COc1cccc([C@H](CC(=O)O)CN2CC[C@@H](CCc3ccc4c(n3)NCCC4)C2)c1 [Example 4, (S)-3-(3-(2-methoxy-2-methylpropoxy)phenyl)-4-((R)-3-(2-(5,6,7,8-tetrahydro-1,8-naphthyridin-2-yl)ethyl)pyrrolidin-1-yl)butanoic acid] |
|  |  |  | 100 | 7.94 | COCCOc1ccc(F)c([C@H](CC(=O)O)CN2CC[C@@H](CCc3ccc4c(n3)NCCC4)C2)c1 [Example 16, (S)-3-(2-Fluoro-5-(2-methoxyethoxy)phenyl)-4-((R)-3-(2-(5,6,7,8-tetrahydro-1,8-naphthyridin-2-yl)ethyl)pyrrolidin-1-yl)butanoic acid] |

Source: patent US10487080B2, “Naphthyridines as integrin antagonists” (GlaxoSmithKline Intellectual Property Development Limited, priority 2016, dated 2019)
